Results taken from patent publication US7132234B2, “Methods and compositions for the identification of anti-poxvirus agents” (priority 2003, dated 2006).
Where a SMILES comes first, the peptide text is derived from it. The star is where a group is joined. Cbz = O=C(OCc1ccccc1)*

Tested on: 26S proteasome-mediated degradation of SP28
Format: cell-based

SMILES: CC(C)C[C@@H](C=O)NC(=O)[C@H](CC(C)C)NC(=O)[C@H](CC(C)C)NC(=O)OCc1ccccc1 [MG132] (Cbz-Leu-Leu-Leu-aldehyde)
- Stability of SP28 C173A/H199A mutant in cells: also stabilized by MG132, although to a much lesser extent
- Stability of wild-type SP28 in cells: remarkably enhanced stability of wild-type SP28
